# Columns and labels:
# CYP2C-2 = assay: IC50-shift experiment, CYP2C-2 in RLMs; type: in vitro ADME, rat; details: for IC50 at 30 min: losartan 15 μM
# CYP2B6 = biological target: T1, CYP2B6 (Homo sapiens, UniProt P20813); assay: Reversible inhibition kinetics (Lineweaver-Burk), CYP2B6 in HLMs; type: in vitro ADME; parameters: 0.20 mg/mL HLMs; from tissue; host or cells: human liver microsomes; details: bupropion
# T1 sequence (P20813 1-491): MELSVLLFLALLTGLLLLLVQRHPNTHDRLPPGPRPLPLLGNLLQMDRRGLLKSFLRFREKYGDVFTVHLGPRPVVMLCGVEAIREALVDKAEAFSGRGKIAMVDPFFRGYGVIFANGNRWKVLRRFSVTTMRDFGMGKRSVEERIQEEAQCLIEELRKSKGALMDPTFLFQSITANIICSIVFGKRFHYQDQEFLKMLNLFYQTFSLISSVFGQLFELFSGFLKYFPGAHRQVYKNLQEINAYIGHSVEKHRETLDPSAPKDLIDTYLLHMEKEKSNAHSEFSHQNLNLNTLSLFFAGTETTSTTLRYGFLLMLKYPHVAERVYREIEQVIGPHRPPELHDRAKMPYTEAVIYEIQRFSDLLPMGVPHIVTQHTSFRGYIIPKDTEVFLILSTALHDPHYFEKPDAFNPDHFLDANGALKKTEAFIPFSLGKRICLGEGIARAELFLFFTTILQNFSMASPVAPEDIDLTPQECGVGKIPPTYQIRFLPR
# Description: (§1) The components of the incubation system were as follows: 0.20 mg/mL HLMs or 0.20 mg/mL RLMs, 0.1 M Tris-HCl, vortioxetine, and the probe substrates of each enzyme. In the study of Km’s (Michaelis–Menten constant) experiment, midazolam (1, 2, 5, 10, 20, 50 and 100 μM in HLMs and RLMs) corresponded to CYP3A4/3A; bupropion (10, 20, 50, 100, 200, 500, 1,000 and 2000 μM in HLMs; 1, 2, 5, 10, 20, 50, 100 and 200 μM in RLMs) corresponded to CYP2B6/2B; amodiaquine (5, 10, 20, 50, 100 and 200 μM in HLMs; 10, 20, 50, 100, 200, 500 μM in RLMs) corresponded to CYP2C8/CYP2C-1; losartan (1, 2, 5, 10, 20, 50, 100, 200 μM in HLMs; 10, 20, 50, 100, 200, 500 and 1,000 μM in RLMs) corresponded to CYP2C9/CYP2C-2; mephenytoin (20, 50, 100, 200, 500 and 1,000 μM in HLMs; 5, 10, 20, 50, 100, 200, 500 and 1,000 μM in RLMs) corresponded to CYP2C19/CYP2C-3; and dextromethorphan (1, 2, 5, 10, 20, 50 and 100 μM in HLMs and RLMs) corresponded to CYP2D6/CYP2D. After 5.0 min of preincubation in the shaking water bath, the reaction was started with the addition of 1.0 mM NADPH. The incubated temperature at 37°C for 30 min. After the incubation, the enzyme reaction was stopped by cooling at −80°C, and 200 μL of acetonitrile and 20 μL of internal standard diazepam (200 ng/mL) were added for protein precipitation. The solution was fully vortexed and centrifuged at 13,000 × rpm for 10 min, and the supernatant was collected for data analysis by UPLC-MS/MS.
# The inhibitory mechanism of the inhibitor on the enzyme was generally used by different concentrations of the inhibitor against different concentrations of the probe substrate. The concentrations of the inhibitor and the concentrations of probe substrates in the experiment were estimated based on IC50 and Km values, respectively.
# In HLMs, the concentrations of the substrates midazolam, bupropion, amodiaquine, losartan, mephenytoin, and dextromethorphan were 1, 2, 4, 8 μM; 10, 20, 40, 80 μM; 0.8, 1.5, 3, 6 μM; 2, 4, 8, 16 μM; 20, 45, 90, 180 μM; 2.5, 5, 10, 20 μM, respectively. Corresponding to the concentration of vortioxetine were 2, 4, 9, 18 μM; 2, 4, 8, 16 μM; 4, 8, 15, 30 μM; 5, 10, 25, 50 μM; 0.6, 1.2, 2.5, 5 μM; 4.5, 9, 18, 36 μM, respectively.
# All experiments results were detected by UPLC-MS/MS, which equipped with a Waters Acquity UPLC system (Milford, MA, United States) and a Waters Xevo TQ-S triple quadrupole tandem mass spectrometer with an electrospray ionization source (Milford, MA, United States). The chromatographic separation was performed on a Waters ACQUITY UPLC BEH C18 column (2.1 × 50 mm, 1.7 μm, Waters Corp.) at 40°C. […]
# (§2) IC50 values and enzyme kinetic parameters were calculated by Graphpad Prism 6.0 (GraphPad software Inc., CA, United States). […] Data for each experiment were expressed as mean ± SD (n = 3).
# CYP2D = assay: IC50-shift experiment, CYP2D in RLMs; type: in vitro ADME; details: rat, rat liver microsomes, probe dextromethorphan; for IC50 at 30 min: dextromethorphan 20 μM
# Description: as §1, with “The solution was fully vortexed and centrifuged at 13,000 × rpm for 10 min, and the supernatant was collected for data analysis by UPLC-MS/MS.” left out
# IC50-shift was used to investigate whether the drug produced time-dependent inhibition (TDI) of the enzyme. […] During the experiment, the individual substrates midazolam (4 μM), bupropion (40 μM), amodiaquine (3 μM), losartan (8 μM), mephenytoin (90 μM), and dextromethorphan (10 μM) were determined with vortioxetine IC50-shift in HLMs. […]
# All experiments results were detected by UPLC-MS/MS, which equipped with a Waters Acquity UPLC system (Milford, MA, United States) and a Waters Xevo TQ-S triple quadrupole tandem mass spectrometer with an electrospray ionization source (Milford, MA, United States). […]
# as §2
structure (smiles),measurement,setting,value
Cc1ccc(Sc2ccccc2N2CCNCC2)c(C)c1 [vortioxetine],activity of CYP2C-2 with the NADPH,CYP2C-2; preincubation with NADPH vs without,significantly increased
same,IC50 at 30 min,"CYP2C-2; rat, rat liver microsomes, probe losartan, CYP2C-2, 30 min preincubation with 1.0 mM NADPH",37.5 µM
same,IC50 at 30 min,"CYP2C-2; rat, rat liver microsomes, probe losartan, CYP2C-2, 30 min preincubation without NADPH",8.97 µM
same,IC50 shift at 30 min,"CYP2C-2; rat, rat liver microsomes, probe losartan, CYP2C-2, ratio IC50 (−) NADPH to IC50 (+) NADPH, read-out: IC50 fold shift",0.24
same,Ki,CYP2B6,8.55 µM
same,α,CYP2B6,2.70
same,Inhibition type,CYP2B6; Lineweaver-Burk plot,mixed inhibition
same,αKi,CYP2B6; secondary plot of y-intercepts,23.04 µM
same,IC50 at 30 min,CYP2D; 30 min preincubation with 1.0 mM NADPH,7.38 µM
same,IC50 at 30 min,CYP2D; 30 min preincubation without NADPH,3.35 µM
same,IC50 shift at 30 min,"CYP2D; ratio IC50 (−) NADPH to IC50 (+) NADPH, read-out: IC50 fold shift",0.45

# From PMC10544575, “Inhibitory mechanism of vortioxetine on CYP450 enzymes in human and rat liver microsomes” (Frontiers in Pharmacology, 2023)
